“And” between values parts separate entries of the source, which are not always exact repeats. Equal values may be shown once. Toxic doses and inconclusive results are not listed. No stated cut-off is given here; in the data, active means T/C of 150% or more; inactive means T/C below 125%.
Test system: L1210 leukemia ip in BDF1 mice, survival T/C
Test: NCI In Vivo Anticancer Drug Screen. Data for tumor model L1210 Leukemia (intraperitoneal) in B6D2F1 (BDF1) mice
Details: endpoint: mean survival time, higher = longer survival
Procedure, shortened: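 Value reflects the ratio of survival in compound-treated mice to survival in vehicle-treated controls, with both groups carrying the same transplanted tumor.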

[1] = dose: 100.0 mg/kg/injection, schedule: Q01DX009 (ip), vehicle: Klucel (hydroxypropylcellulose) (HPC)
[2] = dose: 200.0 mg/kg/injection, schedule: Q01DX009 (ip), vehicle: Klucel (hydroxypropylcellulose) (HPC)
[3] = dose: 400.0 mg/kg/injection, schedule: Q01DX009 (ip), vehicle: Klucel (hydroxypropylcellulose) (HPC)
[4] = dose: 100.0 mg/kg/injection, schedule: Q04DX003 (ip), vehicle: saline with Tween-80
[5] = dose: 200.0 mg/kg/injection, schedule: Q01DX009 (ip), vehicle: saline with Tween-80
[6] = dose: 400.0 mg/kg/injection, schedule: Q04DX003 (ip), vehicle: saline with Tween-80
[7] = dose: 100.0 mg/kg/injection, schedule: Q04DX003 (ip), vehicle: Klucel (hydroxypropylcellulose) (HPC)
[8] = dose: 200.0 mg/kg/injection, schedule: Q04DX003 (ip), vehicle: Klucel (hydroxypropylcellulose) (HPC)
[9] = dose: 400.0 mg/kg/injection, schedule: Q04DX003 (ip), vehicle: Klucel (hydroxypropylcellulose) (HPC)
[10] = dose: 100.0 mg/kg/injection, schedule: Q01DX001 (ip), vehicle: saline
[11] = dose: 200.0 mg/kg/injection, schedule: Q01DX001 (ip), vehicle: saline
[12] = dose: 400.0 mg/kg/injection, schedule: Q01DX001 (ip), vehicle: saline
[13] = dose: 50.0 mg/kg/injection, schedule: Q01DX009 (ip), vehicle: saline with Tween-80
[14] = dose: 100.0 mg/kg/injection, schedule: Q01DX001 (ip), vehicle: Klucel (hydroxypropylcellulose) (HPC)
[15] = dose: 200.0 mg/kg/injection, schedule: Q01DX001 (ip), vehicle: Klucel (hydroxypropylcellulose) (HPC)
[16] = dose: 400.0 mg/kg/injection, schedule: Q01DX001 (ip), vehicle: Klucel (hydroxypropylcellulose) (HPC)

Measured: T/C

COC(=O)c1ccccc1-n1c(-c2ccc([N+](=O)[O-])cc2)csc1=NC(=O)c1cccc([N+](=O)[O-])c1
inactive: [1] 91 % of control | dose: 100.0 mg/kg/injection, schedule: Q04DX002 (ip), vehicle: Klucel (hydroxypropylcellulose) (HPC) 92 % of control | [2] 91 % of control | dose: 200.0 mg/kg/injection, schedule: Q04DX002 (ip), vehicle: Klucel (hydroxypropylcellulose) (HPC) 95 % of control | [3] 88 % of control | dose: 400.0 mg/kg/injection, schedule: Q04DX002 (ip), vehicle: Klucel (hydroxypropylcellulose) (HPC) 100 % of control

CSc1cc(=O)n(C2OC(COC(C)=O)C(OC(C)=O)C2OC(C)=O)c(=O)[nH]1 (stereo not drawn)
inactive: dose: 100.0 mg/kg/injection, schedule: Q01DX005 (ip), vehicle: saline 95 % of control | dose: 200.0 mg/kg/injection, schedule: Q01DX005 (ip), vehicle: saline 97 % of control

Cc1ccc(NC(=O)Nc2cccc(C(F)(F)F)c2)cc1NC(=O)Nc1cccc(C(F)(F)F)c1
inactive: [4] 93 % of control | [5] 92 % of control | dose: 400.0 mg/kg/injection, schedule: Q01DX009 (ip), vehicle: saline with Tween-80 103 % of control | [6] 88 % of control

CCCNC(C)=O
inactive: dose: 100.0 mg/kg/injection, schedule: Q01DX009 (ip), vehicle: saline 102 % of control | dose: 200.0 mg/kg/injection, schedule: Q01DX009 (ip), vehicle: saline 101 % of control | dose: 400.0 mg/kg/injection, schedule: Q01DX009 (ip), vehicle: saline 91 % of control

COc1ccc(/C=C2/Oc3cc(O)ccc3C2=O)cc1
inactive: dose: 100.0 mg/kg/injection, schedule: Q01DX001 (ip), vehicle: saline with Tween-80 90 % of control | dose: 200.0 mg/kg/injection, schedule: Q01DX001 (ip), vehicle: saline with Tween-80 93 % of control | dose: 400.0 mg/kg/injection, schedule: Q01DX001 (ip), vehicle: saline with Tween-80 86 % of control

CC(=O)[C@H]1[C@H](C)C[C@H]2[C@@H]3CCC4=CC(=O)CC[C@]4(C)[C@@]3(F)[C@@H](O)C[C@@]21C
inactive: [1] 103 % of control | [7] 100 % of control | [2] 101 % of control | [8] 97 % of control | [3] 97 % of control | [9] 101 % of control

COc1cc(C)c(Cl)c(C)c1C#CC(=O)O
inactive: dose: 75.0 mg/kg/injection, schedule: Q01DX009 (ip), vehicle: Klucel (hydroxypropylcellulose) (HPC) 101 % of control | dose: 150.0 mg/kg/injection, schedule: Q01DX009 (ip), vehicle: Klucel (hydroxypropylcellulose) (HPC) 100 % of control

Nc1ncnc2c1ncn2C1OC(CO)CC1O (stereo not drawn)
inactive: dose: 37.0 mg/kg/injection, schedule: Q01DX Z (ip), vehicle: carboxymethylcellulose (CMC) 114 % of control | dose: 50.0 mg/kg/injection, schedule: Q01DX001 (ip), vehicle: saline 111 % of control | dose: 75.0 mg/kg/injection, schedule: Q01DX Z (ip), vehicle: carboxymethylcellulose (CMC) 111 % of control | [10] 111 % of control | dose: 150.0 mg/kg/injection, schedule: Q01DX Z (ip), vehicle: carboxymethylcellulose (CMC) 114 % of control | [11] 115 % of control | dose: 300.0 mg/kg/injection, schedule: Q01DX Z (ip), vehicle: carboxymethylcellulose (CMC) 114 % of control and 115 % of control | [12] 123 % of control

C/C=C1\C[C@@H]2C(OC)Nc3cc(O)c(OC)cc3C(=O)N2C1 (stereo partly drawn)
inactive: dose: 0.02 mg/kg/injection, schedule: Q01DX009 (ip), vehicle: saline 98 % of control | dose: 0.04 mg/kg/injection, schedule: Q01DX009 (ip), vehicle: saline 98 % of control | dose: 0.09 mg/kg/injection, schedule: Q01DX009 (ip), vehicle: saline 92 % of control | dose: 0.18 mg/kg/injection, schedule: Q01DX009 (ip), vehicle: saline 101 % of control | dose: 0.18 mg/kg/injection, schedule: Q04DX002 (ip), vehicle: saline 100 % of control | dose: 0.37 mg/kg/injection, schedule: Q04DX002 (ip), vehicle: saline 100 % of control | dose: 0.75 mg/kg/injection, schedule: Q04DX002 (ip), vehicle: saline 110 % of control

[Ni+2].[O-]c1ccccc1C=Nc1ccccc1N=Cc1ccccc1[O-]
inactive: dose: 12.5 mg/kg/injection, schedule: Q01DX009 (ip), vehicle: saline with Tween-80 93 % of control | dose: 25.0 mg/kg/injection, schedule: Q01DX009 (ip), vehicle: saline with Tween-80 93 % of control | [13] 93 % of control

CCCCCCCCCCCCOc1ccc(Br)cc1
inactive: [4] 98 % of control | dose: 200.0 mg/kg/injection, schedule: Q04DX003 (ip), vehicle: saline with Tween-80 92 % of control | [6] 96 % of control

CC[N+](C)(C)C(C)(C)C
inactive: dose: 18.75 mg/kg/injection, schedule: Q01DX001 (ip), vehicle: saline 112 % of control | dose: 37.5 mg/kg/injection, schedule: Q01DX001 (ip), vehicle: saline 105 % of control | dose: 75.0 mg/kg/injection, schedule: Q01DX001 (ip), vehicle: saline 105 % of control

Oc1ccc2ccccc2c1C(c1ccccc1)N1CCCCC1 (stereo not drawn)
inactive: [14] 94 % of control | [15] 97 % of control | [16] 103 % of control

NC(CO)C(O)c1ccc(-c2ccccc2)cc1 (stereo not drawn)
inactive: dose: 75.0 mg/kg/injection, schedule: Q04DX003 (ip), vehicle: Klucel (hydroxypropylcellulose) (HPC) 108 % of control | [14] 94 % of control | dose: 150.0 mg/kg/injection, schedule: Q04DX003 (ip), vehicle: Klucel (hydroxypropylcellulose) (HPC) 106 % of control | [15] 92 % of control | dose: 300.0 mg/kg/injection, schedule: Q04DX003 (ip), vehicle: Klucel (hydroxypropylcellulose) (HPC) 101 % of control | [16] 92 % of control

CC(=O)Nc1ccc(/C=N/NC(=O)CNC(=O)Nc2cccc(Cl)c2Cl)cc1
inactive: [13] 121 % of control | dose: 100.0 mg/kg/injection, schedule: Q01DX009 (ip), vehicle: saline with Tween-80 90 % of control | [5] 88 % of control

O=[N+]([O-])c1ccc(S(=O)(=O)CC(Cl)c2ccccc2)cc1 (stereo not drawn)
inactive: [10] 102 % of control | dose: 100.0 mg/kg/injection, schedule: Q01DX009 (ip), vehicle: acetone 86 % of control | [11] 107 % of control | dose: 200.0 mg/kg/injection, schedule: Q01DX009 (ip), vehicle: acetone 94 % of control | [12] 110 % of control | dose: 400.0 mg/kg/injection, schedule: Q01DX009 (ip), vehicle: acetone 96 % of control

C(=C\c1cnc2ccccc2n1)/c1ccc2c(c1)OCO2
inactive: [1] 89 % of control | [7] 95 % of control | [2] 92 % of control | [8] 91 % of control | [3] 97 % of control | [9] 93 % of control

Cc1ccccc1/C=N/NC(=O)c1cccc2ccccc12
inactive: [10] 89 % of control | [11] 100 % of control

CCC1(C)C(=O)N(C)C(=O)N1Br (stereo not drawn)
inactive: dose: 25.0 mg/kg/injection, schedule: Q01DX009 (ip), vehicle: Klucel (hydroxypropylcellulose) (HPC) 96 % of control | dose: 50.0 mg/kg/injection, schedule: Q01DX009 (ip), vehicle: Klucel (hydroxypropylcellulose) (HPC) 101 % of control | [7] 97 % of control

CCC(C)CC(C)c1ccncc1 (stereo not drawn)
inactive: dose: 5.0 mg/kg/injection, schedule: Q01DX001 (ip), vehicle: saline 97 % of control | dose: 10.0 mg/kg/injection, schedule: Q01DX001 (ip), vehicle: saline 100 % of control | dose: 20.0 mg/kg/injection, schedule: Q01DX001 (ip), vehicle: saline 100 % of control | dose: 40.0 mg/kg/injection, schedule: Q01DX001 (ip), vehicle: saline 97 % of control | dose: 80.0 mg/kg/injection, schedule: Q01DX001 (ip), vehicle: saline 97 % of control | [10] 97 % of control

Cc1ccc([N+](=O)[O-])cc1NC(=O)NCCO
inactive: dose: 100.0 mg/kg/injection, schedule: Q04DX003 (ip), vehicle: saline 106 % of control | dose: 200.0 mg/kg/injection, schedule: Q04DX003 (ip), vehicle: saline 106 % of control | dose: 400.0 mg/kg/injection, schedule: Q04DX003 (ip), vehicle: saline 103 % of control

From PubChem BioAssay AID248 (DTP/NCI, 2004)
